Values after ≈ are worked out from the molar mass of the structure shown. Like-named read-outs stand apart in the source and are kept apart here.
Assays:
Test in all cases: Agar incorporation test, MIC
Assay type in all cases: cell-based
[1] = test system: Aspergillus niger ATCC 6275; conditions: ATCC6275, Example 3, according to Example 2
Method: (§1) An agar incorporation test is carried out to determine the MIC (Minimum Inhibitory Concentration [ppm]) of the compound of formula (101): […]
(§2) The test substances are dissolved in Ethanol, and a dilution series of the compound of the formula […] in agar are prepared.
(§3) Anaerobic bacteria and dermatophytes are cultivated on agar-plates, and washes off with Mueller-Hinton bouillon. Aerobic bacteria are cultivated in Mueller-Hinton bouillon overnight. The test germ suspension are diluted with Mueller-Hinton bouillon to a density of McFarland standard 0.5.
(§4) 10 μl of each germ suspension is dropped onto the agar plates containing the test substance, and the plates are then incubated at 36° C. for 2 to 3 days. (Aerobic bacteria are incubated at 36° C. for 48 hours, anaerobic bacteria are incubated at 30° C. for 72 hours). As controls, the bacterial suspensions are applied to agar plates without test substances. In order to exclude the solvent ethanol having an influence on the growth properties, the bacterial suspensions are applied to agar plates containing ethanol, but without test substance.
(§5) After the plates have been incubated, the growth of the bacteria on the test-substance-containing plates is compared with that of the control plates.

[2] = test system: Candida albicans ATCC 10231; conditions: ATCC10231, Example 3, according to Example 2, read-out: MIC CA = Candida albicans ATCC 10231
Method: as §1, §2, §3, §4, §5

[3] = test system: Escherichia coli NCTC 8196; conditions: NCTC8196, Example 3, according to Example 2, read-out: MIC EC = Escherichia coli NCTC 8196
Method: as §1, §2, §3, §4, §5

[4] = test system: Staphylococcus aureus ATCC 6538
Method: as §1, §2, §3, §4, §5

[5] = test system: Corynebacterium xerosis ATCC 373; conditions: ATCC373, Table 1, 36° C., read-out: MIC (Minimum Inhibitory Concentration) Corynebacterium xerosis ATCC 373
Method: as §1, §2, §3, §4, §5

[6] = test system: Staphylococcus hominis DSM 20330; conditions: DSM20330, Table 1, 36° C., read-out: MIC (Minimum Inhibitory Concentration) Staphylococcus hominis DSM 20330
Method: as §1, §2, §3, §4, §5

[7] = test system: Staphylococcus hominis DSM 20328; conditions: DSM20328, Example 3, according to Example 2, read-out: MIC SH = Staphylococcus hominis DSM 20328
Method: as §1, §2, §3, §4, §5

[8] = ATCC6538, Example 3, according to Example 2, read-out: MIC SA = Staphylococcus aureus ATCC 6538

Row | SMILES | MIC [1] | MIC [2] | MIC [3] | MIC [4, 8] | MIC [5] | MIC ([4]; ATCC6538, read-out: MIC (Minimum Inhibitory Concentration) Staphylococcus aureus ATCC 6538) | MIC [6] | MIC [7]
1 | Oc1csnc1-c1ccccc1 [(103)] | 100 µg/mL (≈ 564 µM) | 250 µg/mL (≈ 1410 µM) | 250 µg/mL (≈ 1410 µM) | 50 µg/mL (≈ 282 µM) | – | – | – | –
2 | O=C(c1ccc(F)cc1)c1snc(-c2ccc(F)cc2)c1O [(108)] | – | 100 µg/mL (≈ 315 µM) | – | – | – | – | – | –
3 | Oc1csnc1Cc1ccccc1 [(104)] | 500 µg/mL (≈ 2610 µM) | 500 µg/mL (≈ 2610 µM) | 250 µg/mL (≈ 1310 µM) | 50 µg/mL (≈ 261 µM) | – | – | – | –
4 | Oc1c(-c2ccccc2)nsc1-c1ccccc1 [(101), 3,5-diphenyl-4-hydroxyisothiazole] | – | – | – | – | 5 µg/mL (≈ 19.7 µM) | 5 µg/mL (≈ 19.7 µM) | 50 µg/mL (≈ 197 µM) | –
5 | Oc1c(-c2ccccc2)nsc1Sc1snc(-c2ccccc2)c1O [(107)] | – | – | – | 5 µg/mL (≈ 13 µM) | – | – | – | 5 µg/mL (≈ 13 µM)
6 | Oc1c(-c2ccc(F)cc2)nsc1Sc1snc(-c2ccc(F)cc2)c1O [(109)] | – | – | – | – | – | – | – | 2 µg/mL (≈ 4.76 µM)
7 | CCc1snc(-c2ccccc2)c1O [(106)] | 100 µg/mL (≈ 487 µM) | 500 µg/mL (≈ 2440 µM) | 500 µg/mL (≈ 2440 µM) | 500 µg/mL (≈ 2440 µM) | – | – | – | 500 µg/mL (≈ 2440 µM)
8 | Oc1c(-c2ccccc2)nsc1-c1ccccc1 [(102)] | 13 µg/mL (≈ 51.3 µM) | 50 µg/mL (≈ 197 µM) | 5 µg/mL (≈ 19.7 µM) | 10 µg/mL (≈ 39.5 µM) | – | – | – | 50 µg/mL (≈ 197 µM)
9 | Cc1snc(-c2ccccc2)c1O [(105)] | 10 µg/mL (≈ 52.3 µM) | 50 µg/mL (≈ 261 µM) | 50 µg/mL (≈ 261 µM) | 50 µg/mL (≈ 261 µM) | – | – | – | –

Reference: patent publication US6376522B1, “4-hydroxyisothiazole compounds” (Ciba Specialty Chemicals Corporation, priority 1999, dated 2002)
